Results as given in patent publication US20260022098A1, “BULLEYACONITINE A DERIVATIVE WITH ANALGESIC ACTIVITY, AND PREPARATION METHOD AND APPLICATION THEREOF” (priority 2023, published 2026).
Where two headings read alike, the source gives them in different places. Marks after values point to notes of the source that are not given here.

Legend:
[1] = test system: LPS-induced RAW 264.7 cells; assay: Griess assay, inhibition of NO release in LPS-induced RAW 264.7 cells; type: cell-based; settings: Griess method, compound at 30 M (so in the source), 22 h
Protocol: (§1) The effect of the compound to be tested on viability of RAW 264.7 cells at a concentration of […] was assessed through MTT assay (Methylthiazolyldiphenyl-tetrazolium bromide assay), and the inhibition on NO release in the inflammatory response of LPS-induced RAW 264.7 cells at 30 µM was determined through Griess method. Specific methods were described as follows.
RAW264.7 cells beyond third passage were added to a culture medium and gently pipetted to detach, forming a cell suspension. 10 μL of the cell suspension was applied onto a hemocytometer slide for counting, and cells were seeded into a 96-well plate at a density of 3×10^4 cells per well with 100 μL of the cell suspension per well. After incubated at 37° C. with […] for 24 h, supernatant was removed. The blank group received 100 μL of DMSO (1/1000 dilution) per well, a LPS (lipopolysaccharide) group received 100 μL of DMSO (1/1000 dilution) per well, and the experimental groups received 100 μL of the test samples per well. The LPS group received 1 μg/ml of LPS by […] per well, and the experimental groups received […] of LPS by 3 μg per well. After 22 h, 50 μL of supernatant was transferred into another 96-well plate, added with Griess Reagent I in a NO assay kit by 50 μL per well, then added with Griess Reagent II by 50 μL per well, and subjected to an absorbance test at 562 nm. Nitric oxide (NO) concentration was calculated based on a standard curve, which was specifically as follows: NO inhibition rate (%)=(ODLPS−ODTest)/(ODLPS−ODBlank)×100).

RAW 264.7 cells = assay: MTT assay, viability of RAW 264.7 cells; type: cell-based; settings: compound diluted to 30 mol/L (so in the source), 12 h
Protocol: as §1
An MTT solution (5 mg/mL) was prepared with a PBS buffer, filter-sterilized through a 0.22 μm filter membrane, and stored protected from light at low temperature. Each compound was dissolved in DMSO to prepare a 50 mmol/L stock solution, and stored from light at low (frozen) temperature. The stock solution was diluted to 30 mol/L with DMEM (Dulbecco's modified Eagle's medium) containing 10% FBS (fetal bovine serum). RAW264.7 cells beyond third passage were added to a culture medium and gently pipetted to detach, forming a cell suspension. 10 μL of the cell suspension was applied onto a hemocytometer slide for counting, and cells were seeded into 96-well plates at a density of 6×10^3 cells per well with 100 μL of the cell suspension per well. After incubated at 37° C. with 5% CO2 for 24 h, supernatant was removed. A zero-adjustment group (CO group) received 100 μL of medium per well, the blank group (CK group) received 100 μL of DMSO (1/1000 dilution) per well, and the experimental groups received 100 μL of the test samples per well. After 12 h, supernatant was removed, and […] of MTT solution was added into each well at 120 μL per well. After incubated in COz at a constant temperature for 4 h, supernatant was removed, and DMSO was added into each well by 150 μL per well. The mixture was shaken at 50 r/min for 10 min and subjected to an absorbance test at 492 nm. Relative cell viability (x) was calculated through a formula as follows: relative cell viability (%)=(ODTest−ODCO)/(ODCK−ODCO)×100%.

Kunming mice [2] = assay: Calculation of therapeutic index (TI = LD50/ED50); type: in vivo
Protocol: (3) Calculation of Therapeutic Index (TI)
The therapeutic index of each compound was calculated based on the median effective dose and the median lethal dose, which were specifically as follows: therapeutic index (TI)=median lethal dose (LD50)/median effective dose (ED50).

Kunming mice [3] = assay: Acute toxicity / median lethal dose (LD50) determination, subcutaneous injection; type: in vivo; parameters: key to Acute toxicity: if death occurred, (+) represented as positive; if no death occurred, (−) represented as negative; settings: mice administered 20 mg/kg subcutaneously, presence of death within 24 h
In short: (§2)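 Kunming mice (22±2 g, 1:1 male:female, fasted 12 h), 10 per group, given compound subcutaneously at 0.1 mL/10 g in saline after 1:1 molar dissolution in 0.1 mol/L HCl. At least 5 proportional dose groups set from a 20 mg/kg pilot; 24 h survival, LD50 by Probit regression.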

[4] = as above; type: in vivo, mice; parameters: key to Acute toxicity: if death occurred, (+) represented as positive; if no death occurred, (−) represented as negative; settings: both sexes, Kunming, mouse, in vivo, sc; mice, subcutaneous, survival within 24 h, Probit regression; >X = no death or toxic symptoms at X mg/kg
In short: as §2

Kunming mice [5] = assay: Analgesic activity by acetic acid-induced writhing method (writhing inhibition rate, ED50); type: in vivo; settings: Mus musculus, sc; for ED50: Probit regression, read-out: ED50; for inhibition in vivo at 0.05 mg/kg / inhibition in vivo at 0.5 mg/kg: read-out: Analgesia rate (%) ± SEM
In short: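 Kunming mice (22±2 g, 1:1 sex, 12 h fasted, 10/group) got compound s.c. (dissolved 1:1 molar with 0.1 mol/L HCl, diluted in saline); 0.7% acetic acid i.p. 15 min later, writhes counted over 15 min. Inhibition rate vs saline blank; ED50 by Probit regression over ≥5 doses.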

[6] = acetic acid-induced writhing, mice, subcutaneous
[7] = dosing concentration 0.05 mg/kg, subcutaneous, acetic acid-induced writhing, mice
[8] = dosing concentration 0.5 mg/kg, subcutaneous, acetic acid-induced writhing, mice

Row | Structure (SMILES) | Inflammatory NO inhibition rate [1] [%] | RAW cell viability (RAW 264.7 cells) | TI (Kunming mice [2]) | Acute toxicity (Kunming mice [3]) | LD50 [4] [mg/kg] | ED50 (Kunming mice [5]; [6]) [mg/kg] | inhibition in vivo at 0.05 mg/kg (Kunming mice [5]; [7]) [%] | inhibition in vivo at 0.5 mg/kg (Kunming mice [5]; [8]) [%] | inhibition in vivo at 0.05 mg/kg (Kunming mice [5]) [%] | inhibition in vivo at 0.5 mg/kg (Kunming mice [5]) [%]
1 | Cc1ccc(-c2cc(C(F)(F)F)nn2-c2ccc(S(N)(=O)=O)cc2)cc1 [Celecoxib, reference compound] | 74 ± 2.2 | 93.09 ± 2.14 ns % |  |  |  |  |  |  |  | 
2 | CCO[C@]12C[C@H](OC)[C@@]3(OC(=O)C4CCCCC4)CC(C1[C@H]3OC(=O)C1CCCCC1)[C@]13C4[C@@H](OC)C2[C@H]1N(CC)C[C@]4(COC)CC[C@@H]3OC (stereo partly drawn) [Compound 5] |  | 28.05 ± 4.84 % | >1204.8 | − | > 100 | 0.083 | 49.7 ± 1.1 |  |  | 
3 | CCO[C@]12C[C@H](OC)[C@@]3(OC(=O)c4ccco4)CC(C1[C@H]3OC(=O)c1ccco1)[C@]13C4[C@@H](OC)C2[C@H]1N(CC)C[C@]4(COC)CC[C@@H]3OC (stereo partly drawn) [Compound 6] | 22 ± 4.41 | 92.23 ± 1.29 ns % | >8695.7 | − | > 600 | 0.069 | 59.8 ± 2.3 |  |  | 
4 | CCN1C[C@]2(COC)CC[C@H](OC)[C@@]34C5C[C@]6(OC(=O)c7ccco7)[C@@H](OC)C[C@@](OC(C)=O)(C5[C@H]6OC(=O)c5ccc(OC)cc5)C([C@H](OC)C23)[C@@H]14 (stereo partly drawn) [Compound 12] | 17 ± 5.14 | 119.75 ± 1.11***^ % |  | − |  |  | 45.7 ± 0.6 | 54.2 ± 1.4 |  | 
5 | CCO[C@]12C[C@H](OC)[C@@]3(OC(=O)c4ccc(OC)cc4)CC(C1[C@H]3OC(=O)c1ccc(OC)cc1)[C@]13C4[C@@H](OC)C2[C@H]1N(CC)C[C@]4(COC)CC[C@@H]3OC (stereo partly drawn) [Compound 13] |  | 8.29 ± 2.8 % | >1219.5 | − | > 100 | 0.082 | 49.4 ± 1.3 |  |  | 
6 | CCO[C@]12C[C@H](OC)[C@@]3(OC(=O)c4ccco4)CC(C1[C@H]3OC(=O)c1ccc(OC)cc1)[C@]13C4[C@@H](OC)C2[C@H]1N(CC)C[C@]4(COC)CC[C@@H]3OC (stereo partly drawn) [Compound 15] | 5 ± 2.17 | 104.18 ± 6.16 ns % | 773 | − | 56.4 | 0.073 | 57.6 ± 1.3 |  |  | 
7 | CCO[C@]12C[C@H](OC)[C@@]3(OC(=O)c4cccs4)CC(C1[C@H]3OC(=O)c1cccs1)[C@]13C4[C@@H](OC)C2[C@H]1N(CC)C[C@]4(COC)CC[C@@H]3OC (stereo partly drawn) [Compound 17] | 47 ± 3.49 | 87.25 ± 2.09 ns % |  | − |  |  | 44.44 ± 0.4 | 54.7 ± 1.5 |  | 
8 | CCO[C@]12C[C@H](OC)[C@@]3(OC(=O)C4CCOCC4)CC(C1[C@H]3OC(=O)C1CCOCC1)[C@]13C4[C@@H](OC)C2[C@H]1N(CC)C[C@]4(COC)CC[C@@H]3OC (stereo partly drawn) [Compound 23] |  | 81.35 ± 3.48 % | >1369.9 | − | > 100 | 0.073 | 57.9 ± 0.6 |  |  | 
9 | CCO[C@]12C[C@H](OC)[C@@]3(OC(=O)C4CCOCC4)CC(C1[C@H]3OC(=O)c1ccc(OC)cc1)[C@]13C4[C@@H](OC)C2[C@H]1N(CC)C[C@]4(COC)CC[C@@H]3OC (stereo partly drawn) [Compound 24] | 8 ± 2.69 | 94.97 ± 7.74 ns % |  | − |  |  | 46.1 ± 1.7 | 50.9 ± 1.7 |  | 
10 | CCO[C@]12C[C@H](OC)[C@@]3(OC(=O)c4ccc([N+](=O)[O-])cc4)CC(C1[C@H]3OC(=O)c1ccc([N+](=O)[O-])cc1)[C@]13C4[C@@H](OC)C2[C@H]1N(CC)C[C@]4(COC)CC[C@@H]3OC (stereo partly drawn) [Compound 38] | 23 ± 5.6 | 99.37 ± 10.29 ns % |  | − |  |  |  |  | 42.4 ± 1.5 | 56.2 ± 1
11 | CCO[C@]12C[C@H](OC)[C@@]3(OC(=O)c4ccc([N+](=O)[O-])cc4)CC(C1[C@H]3OC(=O)c1ccc(OC)cc1)[C@]13C4[C@@H](OC)C2[C@H]1N(CC)C[C@]4(COC)CC[C@@H]3OC (stereo partly drawn) [Compound 39] |  | 6.97 ± 0.93 % | >512.8 | − | > 100 | 0.195 | 51.1 ± 1.4 |  |  | 
12 | CCO[C@]12C[C@H](OC)[C@@]3(OC(=O)c4ccccc4)CC(C1[C@H]3OC(=O)c1ccccc1)[C@]13C4[C@@H](OC)C2[C@H]1N(CC)C[C@]4(COC)CC[C@@H]3OC (stereo partly drawn) [Compound 52] |  | 7.00 ± 0.98 % | >208.8 | − | > 100 | 0.479 | 47 ± 1.8 | 64.2 ± 1.3 |  | 
13 | CCO[C@]12C[C@H](OC)[C@@]3(OC(=O)c4ccc(F)cc4)CC(C1[C@H]3OC(=O)c1ccc(F)cc1)[C@]13C4[C@@H](OC)C2[C@H]1N(CC)C[C@]4(COC)CC[C@@H]3OC (stereo partly drawn) [Compound 59] |  | 7.00 ± 1.38 % |  | − |  |  | 43.5 ± 2.5 | 57.6 ± 0.9 |  | 
14 | CCCC(=O)O[C@]12CC3C([C@H]1OC(=O)c1ccc(OC)cc1)[C@](OC(C)=O)(C[C@@H]2OC)C1[C@H](OC)C2[C@@]4(COC)CC[C@H](OC)[C@@]32[C@@H]1N(CC)C4 (stereo partly drawn) [Compound 79] | 42 ± 4.69 | 101.29 ± 2.63 ns % |  | − |  |  | 37.9 ± 2 |  |  | 
15 | CCO[C@]12C[C@H](OC)[C@@]3(OC(=O)CC(C)(C)C)CC(C1[C@H]3OC(=O)CC(C)(C)C)[C@]13C4[C@@H](OC)C2[C@H]1N(CC)C[C@]4(COC)CC[C@@H]3OC (stereo partly drawn) [Compound 88] |  | 74.05 ± 10.06 % | >621.1 | − | > 100 | 0.161 | 47.7 ± 0.6 | 65.07 ± 0.6 |  | 
16 | CCO[C@]12C[C@H](OC)[C@@]3(OC(=O)CC(C)(C)C)CC(C1[C@H]3OC(=O)c1ccc(OC)cc1)[C@]13C4[C@@H](OC)C2[C@H]1N(CC)C[C@]4(COC)CC[C@@H]3OC (stereo partly drawn) [Compound 90] | 12 ± 4.85 | 101.74 ± 7.63 ns % |  | − |  |  | 41.9 ± 1.9 | 59 ± 0.8 |  | 
